Here are results for nine molecules from the NIST ThermoML archive (doi:10.1016/j.jct.2012.04.025).

Each structure is given as a SMILES string. Numbers after ± are expanded uncertainties.

The data set in a line: molar heat capacity at constant pressure. To be noted: 298.15 K; 101.33 kPa; Liquid; High-precision drop calorimeter.

As for `CCCC[n+]1ccn(C)c1.O=S(=O)([N-]S(=O)(=O)C(F)(F)F)C(F)(F)F`, the “molar heat capacity at constant pressure” value is 565.9 ± 5 J/K/mol.

As to `CCn1cc[n+](C)c1.O=S(=O)([N-]S(=O)(=O)C(F)(F)F)C(F)(F)F`, the “molar heat capacity at constant pressure” value amounted to 504.8 ± 5 J/K/mol.

As to `CCCCCC[n+]1ccn(C)c1.O=S(=O)([N-]S(=O)(=O)C(F)(F)F)C(F)(F)F`, the “molar heat capacity at constant pressure” value was 629.4 ± 6 J/K/mol.

As to `CCCCCCCn1cc[n+](C)c1.O=S(=O)([N-]S(=O)(=O)C(F)(F)F)C(F)(F)F`, the “molar heat capacity at constant pressure” value came out at 659.2 ± 6 J/K/mol.

In the case of `CCCCCCCCn1cc[n+](C)c1.O=S(=O)([N-]S(=O)(=O)C(F)(F)F)C(F)(F)F`, the “molar heat capacity at constant pressure” value turned out to be 690.2 ± 7 J/K/mol.

As to `CCCCCn1cc[n+](C)c1.O=S(=O)([N-]S(=O)(=O)C(F)(F)F)C(F)(F)F`, the “molar heat capacity at constant pressure” value turned out to be 595.6 ± 6 J/K/mol.

As to `CCCCCCCCCCCCn1cc[n+](C)c1.O=S(=O)([N-]S(=O)(=O)C(F)(F)F)C(F)(F)F`, the “molar heat capacity at constant pressure” value is recorded as 820.2 ± 8 J/K/mol.

As for `CCCCCCCCCCn1cc[n+](C)c1.O=S(=O)([N-]S(=O)(=O)C(F)(F)F)C(F)(F)F`, the “molar heat capacity at constant pressure” value turned out to be 754.5 ± 7 J/K/mol.

For the molecule `CCCn1cc[n+](C)c1.O=S(=O)([N-]S(=O)(=O)C(F)(F)F)C(F)(F)F`, the “molar heat capacity at constant pressure” value worked out at 534.9 ± 5 J/K/mol.
